Experiment [1] is described as follows: NIH-3T3 fibroblast cytotoxicity, dose response, cytotoxicity control, cell-based, fluorescence, Alamar Blue, secondary assay (AID 2327).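 Further: NIH-3T3 mouse fibroblasts cultured with fluconazole at 8 µg/mL.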 In kind it is functional.
The target in experiment [2] is Eukaryotic translation initiation factor 4H (Homo sapiens, UniProt Q15056). As to the kind of experiment: human eIF4H binding inhibitors, primary screen, translation initiation inhibitor project, biochemical, uHTS, fluorescence polarization (AID 2012). (In fluorescence polarisation assays a small probe gives low polarisation when free and higher when bound to something large.)

The next experiment concerns the target Protein Tat (Human immunodeficiency virus type 1 group M subtype B (isolate HXB2)(HIV-1), UniProt P04608). In kind it is functional.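 Further: tat binding to TAR RNA read out by fluorescence polarization.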
Another experiment concerns the target Genome polyprotein (dengue virus type 2, UniProt P29990). In words: Dengue-2 NS5 methyltransferase inhibitors, primary screen, biochemical, confirmation dose response (AID 588689). Format: functional.
In experiment [3] the target is Polyadenylate-binding protein 1 (Homo sapiens, UniProt P11940). As to the kind of experiment: PABP poly(A) RNA binding inhibitors, primary screen, biochemical, fluorescence polarization, uHTS (AID 2014).
The nature of experiment [4]: C. albicans growth with fluconazole, confirmation, fluorescence, retest (AID 2467). In kind it is functional, cell-based.
The next experiment deals with Cytochrome P450 2D6 (Homo sapiens, UniProt P10635). In words: qHTS Assay for Inhibitors and Substrates of Cytochrome P450 2D6. [Related pubchem assays: 410 ]. In kind it is ADME. Particulars: read-out: Potency. For orientation: In qHTS, concentration-response curves come from the screen itself.
The next experiment has as its target Cytochrome P450 2C9 (Homo sapiens, UniProt P11712). As to conditions: Potency.
For experiment [5], the target named is T1, Tyrosine-protein phosphatase non-receptor type 7 (Homo sapiens, UniProt P35236).
T1 sequence (P35236 whole entry): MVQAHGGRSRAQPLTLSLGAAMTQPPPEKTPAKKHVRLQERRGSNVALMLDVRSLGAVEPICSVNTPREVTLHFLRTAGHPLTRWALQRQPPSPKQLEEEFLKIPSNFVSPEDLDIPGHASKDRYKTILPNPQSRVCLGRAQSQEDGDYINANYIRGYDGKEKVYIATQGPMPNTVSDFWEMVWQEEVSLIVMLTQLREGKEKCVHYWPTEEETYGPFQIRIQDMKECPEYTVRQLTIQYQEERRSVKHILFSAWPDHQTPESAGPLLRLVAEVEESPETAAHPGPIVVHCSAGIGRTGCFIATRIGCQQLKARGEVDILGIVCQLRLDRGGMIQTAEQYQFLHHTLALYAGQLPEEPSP
In kind it is functional.

For experiment [6], the target named is Glyceraldehyde-3-phosphate dehydrogenase (Homo sapiens, UniProt P04406).
The target of experiment [7] is T2, Dual specificity protein phosphatase 6 (Rattus norvegicus, UniProt Q64346).
T2 sequence (Q64346 whole entry): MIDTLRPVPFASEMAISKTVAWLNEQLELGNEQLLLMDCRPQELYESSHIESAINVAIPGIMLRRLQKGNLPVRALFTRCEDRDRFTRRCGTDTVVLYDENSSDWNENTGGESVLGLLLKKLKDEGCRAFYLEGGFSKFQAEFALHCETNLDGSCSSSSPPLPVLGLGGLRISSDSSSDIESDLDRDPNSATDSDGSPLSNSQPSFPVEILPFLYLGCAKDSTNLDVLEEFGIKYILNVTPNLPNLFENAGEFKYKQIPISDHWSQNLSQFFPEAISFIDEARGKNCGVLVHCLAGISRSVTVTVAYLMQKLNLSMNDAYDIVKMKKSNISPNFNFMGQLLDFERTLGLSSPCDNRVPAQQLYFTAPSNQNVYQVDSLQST
Format: functional.

Experiment [8] addresses T2, Dual specificity protein phosphatase 6.
The target of a further experiment is T3, Caspase-3 (Homo sapiens, UniProt P42574).
T3 sequence (P42574 whole entry): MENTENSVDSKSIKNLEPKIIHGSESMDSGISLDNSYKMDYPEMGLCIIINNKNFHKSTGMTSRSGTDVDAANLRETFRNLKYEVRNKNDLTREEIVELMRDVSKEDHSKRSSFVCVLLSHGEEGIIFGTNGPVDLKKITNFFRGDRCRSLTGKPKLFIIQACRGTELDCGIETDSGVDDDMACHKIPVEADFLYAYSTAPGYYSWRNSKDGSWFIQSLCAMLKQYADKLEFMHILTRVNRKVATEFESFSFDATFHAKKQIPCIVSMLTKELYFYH
As to the kind of experiment: procaspase-3 activation potency of dual hits, dose response, counter-screen for dual procaspase-3/7 activator project, biochemical, absorbance, PC-3 D3A mutant (AID 504328). A general note: A counterscreen serves to expose hits that act by an unwanted route or on another target.

In another experiment the target is Caspase-7 (Homo sapiens, UniProt P55210). As to the kind of experiment: procaspase-7 activators, dose response, dual procaspase-3/-7 activator project, biochemical, absorbance, human (AID 504330).
The nature of experiment [9]: HEp-2 cell cytotoxicity, dose response, cytotoxicity control for RSV inhibitor project, HTS (AID 2410). Format: functional. As to conditions: human respiratory syncytial virus.
Experiment [10] has as its target T4, Sentrin-specific protease 1 (Homo sapiens, UniProt Q9P0U3).
T4 sequence (Q9P0U3 whole entry): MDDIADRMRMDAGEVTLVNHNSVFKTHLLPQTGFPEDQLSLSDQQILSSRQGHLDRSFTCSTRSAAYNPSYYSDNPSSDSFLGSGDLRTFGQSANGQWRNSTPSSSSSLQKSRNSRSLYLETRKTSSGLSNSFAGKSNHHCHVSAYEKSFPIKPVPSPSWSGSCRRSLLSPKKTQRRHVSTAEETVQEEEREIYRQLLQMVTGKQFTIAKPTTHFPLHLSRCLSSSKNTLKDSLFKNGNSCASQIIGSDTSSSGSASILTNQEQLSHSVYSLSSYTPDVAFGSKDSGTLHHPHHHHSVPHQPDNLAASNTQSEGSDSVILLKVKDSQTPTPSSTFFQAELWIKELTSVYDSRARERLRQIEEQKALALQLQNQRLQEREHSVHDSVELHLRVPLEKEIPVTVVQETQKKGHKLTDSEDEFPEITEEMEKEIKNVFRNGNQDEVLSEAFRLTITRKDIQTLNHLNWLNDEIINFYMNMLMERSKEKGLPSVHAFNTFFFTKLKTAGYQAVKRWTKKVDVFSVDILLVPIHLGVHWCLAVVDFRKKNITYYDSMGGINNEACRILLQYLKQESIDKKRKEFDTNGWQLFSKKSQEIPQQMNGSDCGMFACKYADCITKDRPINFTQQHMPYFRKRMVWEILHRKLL
As to the kind of experiment: Dose response confirmation of small molecule inhibitors of the catalytic domain of the SUMO protease, SENP1 in a FRET assay. Format: functional. As to conditions: read-out: IC50_Mean.

Experiment [11] concerns the target Female germline-specific tumor suppressor gld-1 (Caenorhabditis elegans, UniProt Q17339). As to the kind of experiment: inhibitors of GLD-1 binding to TGE RNA, dose response, biochemical, fluorescence polarization, C. elegans (AID 2802).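 Further: fluorescence polarization of labeled TGE RNA bound by purified gld-1 protein.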
The target of experiment [12] is T4, Sentrin-specific protease 1. As to the kind of experiment: potency of human SENP1 inhibitors, dose response, biochemical, kinetic FRET (AID 651697). Format: functional. Particulars: read-out: IC50_Mean.
For another experiment, the target named is Protein Rev (Human immunodeficiency virus type 1 group M subtype B (isolate HXB2)(HIV-1), UniProt P04618). As to the kind of experiment: inhibitors of Rev binding to RRE RNA, dose response, biochemical, fluorescence polarization, HIV-1 (AID 434976). Also on record: species or system Human immunodeficiency virus 1.
The next experiment has as its target Estrogen receptor beta (Homo sapiens, UniProt Q92731).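 Further: recombinant ER-beta bound to coactivator SRC1 peptide in presence of estradiol agonist; inhibitors block coactivator peptide binding and lower the FRET signal.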
The test system of the next experiment is H9c2. As to the kind of experiment: cells. Particulars: Rattus norvegicus, H9c2, Myocardium. Format: functional, cell-based.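 Further: confirmatory concentration-response retest of ultra-high-throughput screening hits for modulation of myocardial damage; cell death induced by hydrogen peroxide oxidative stress; compound pretreatment for 60 min then peroxide exposure for 2 h; potency is for protecting the cells against peroxide damage rather than for killing them.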
In experiment [13] the target is Voltage-gated N-type calcium channel alpha-1B subunit/Amyloid beta A4 precursor protein-binding family A member 1 (Homo sapiens, UniProt Q00975+Q02410). In words: disruptors of Mint-PDZ/N-type channel peptide interaction – biochemical, HTRF, set 2, SAR follow-up (AID 434980). Format: functional.
Experiment [14] addresses Melanin-concentrating hormone receptor 1 (Homo sapiens, UniProt Q99705). In words: Fluorescence-based counterscreen for antagonists of the G-protein coupled receptor 7 (GPR7): cell-based high throughput dose response assay to identify antagonists of the melanin-concentrating hormone receptor 1 (MCHR1). In kind it is functional.
In experiment [15] the target is Neuropeptides B/W receptor type 1 (Homo sapiens, UniProt P48145). As to the kind of experiment: Fluorescence-based dose response cell-based high throughput screening assay to identify antagonists of the G-protein coupled receptor 7 (GPR7). [Related pubchem assays: 1952 (Screening assay (GPR7 antagonists).), 1880 (Summary AID.)]. Format: functional.
A further experiment concerns the target X-box-binding protein 1 (Homo sapiens, UniProt P17861). In kind it is functional, Cricetulus griseus.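 Further: confirmatory dose-response counter-screen serving a CHOP assay.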
The nature of experiment [16]: growth suppression of beta-catenin-knockout colon cells, dose response, cell-based, HCT116, human colon tumor (AID 1045).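 Further: HCT116 colon tumor cells with beta catenin knocked out; cells exposed to compound for 60 hours.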 Format: functional.
The nature of experiment [17]: growth suppression of PTEN-null colon cells, dose response, cell-based, HCT116 PTEN knockout (AID 1047).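 Further: HCT116 colon tumor cells with PTEN knocked out; cells exposed to compound for 60 hours before readout; potency for loss of cell viability measured by luminescence.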 Format: functional.

Activity calls are given as the source filed them.

Sequence of Female germline-specific tumor suppressor gld-1 (Q17339 whole entry): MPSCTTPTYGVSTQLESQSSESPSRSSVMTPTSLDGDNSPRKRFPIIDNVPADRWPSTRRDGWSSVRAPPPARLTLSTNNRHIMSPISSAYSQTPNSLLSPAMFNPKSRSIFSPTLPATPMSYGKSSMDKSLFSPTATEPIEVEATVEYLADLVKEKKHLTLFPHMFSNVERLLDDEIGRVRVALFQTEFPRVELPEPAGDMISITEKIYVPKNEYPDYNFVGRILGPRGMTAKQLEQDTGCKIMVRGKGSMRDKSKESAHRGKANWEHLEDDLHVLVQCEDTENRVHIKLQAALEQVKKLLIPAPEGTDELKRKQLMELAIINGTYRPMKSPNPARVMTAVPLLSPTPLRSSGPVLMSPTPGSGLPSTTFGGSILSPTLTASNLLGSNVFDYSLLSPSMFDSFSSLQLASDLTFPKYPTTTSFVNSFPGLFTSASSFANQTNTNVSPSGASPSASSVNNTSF
Sequence of Voltage-gated N-type calcium channel alpha-1B subunit/Amyloid beta A4 precursor protein-binding family A member 1 (Q00975 whole entry): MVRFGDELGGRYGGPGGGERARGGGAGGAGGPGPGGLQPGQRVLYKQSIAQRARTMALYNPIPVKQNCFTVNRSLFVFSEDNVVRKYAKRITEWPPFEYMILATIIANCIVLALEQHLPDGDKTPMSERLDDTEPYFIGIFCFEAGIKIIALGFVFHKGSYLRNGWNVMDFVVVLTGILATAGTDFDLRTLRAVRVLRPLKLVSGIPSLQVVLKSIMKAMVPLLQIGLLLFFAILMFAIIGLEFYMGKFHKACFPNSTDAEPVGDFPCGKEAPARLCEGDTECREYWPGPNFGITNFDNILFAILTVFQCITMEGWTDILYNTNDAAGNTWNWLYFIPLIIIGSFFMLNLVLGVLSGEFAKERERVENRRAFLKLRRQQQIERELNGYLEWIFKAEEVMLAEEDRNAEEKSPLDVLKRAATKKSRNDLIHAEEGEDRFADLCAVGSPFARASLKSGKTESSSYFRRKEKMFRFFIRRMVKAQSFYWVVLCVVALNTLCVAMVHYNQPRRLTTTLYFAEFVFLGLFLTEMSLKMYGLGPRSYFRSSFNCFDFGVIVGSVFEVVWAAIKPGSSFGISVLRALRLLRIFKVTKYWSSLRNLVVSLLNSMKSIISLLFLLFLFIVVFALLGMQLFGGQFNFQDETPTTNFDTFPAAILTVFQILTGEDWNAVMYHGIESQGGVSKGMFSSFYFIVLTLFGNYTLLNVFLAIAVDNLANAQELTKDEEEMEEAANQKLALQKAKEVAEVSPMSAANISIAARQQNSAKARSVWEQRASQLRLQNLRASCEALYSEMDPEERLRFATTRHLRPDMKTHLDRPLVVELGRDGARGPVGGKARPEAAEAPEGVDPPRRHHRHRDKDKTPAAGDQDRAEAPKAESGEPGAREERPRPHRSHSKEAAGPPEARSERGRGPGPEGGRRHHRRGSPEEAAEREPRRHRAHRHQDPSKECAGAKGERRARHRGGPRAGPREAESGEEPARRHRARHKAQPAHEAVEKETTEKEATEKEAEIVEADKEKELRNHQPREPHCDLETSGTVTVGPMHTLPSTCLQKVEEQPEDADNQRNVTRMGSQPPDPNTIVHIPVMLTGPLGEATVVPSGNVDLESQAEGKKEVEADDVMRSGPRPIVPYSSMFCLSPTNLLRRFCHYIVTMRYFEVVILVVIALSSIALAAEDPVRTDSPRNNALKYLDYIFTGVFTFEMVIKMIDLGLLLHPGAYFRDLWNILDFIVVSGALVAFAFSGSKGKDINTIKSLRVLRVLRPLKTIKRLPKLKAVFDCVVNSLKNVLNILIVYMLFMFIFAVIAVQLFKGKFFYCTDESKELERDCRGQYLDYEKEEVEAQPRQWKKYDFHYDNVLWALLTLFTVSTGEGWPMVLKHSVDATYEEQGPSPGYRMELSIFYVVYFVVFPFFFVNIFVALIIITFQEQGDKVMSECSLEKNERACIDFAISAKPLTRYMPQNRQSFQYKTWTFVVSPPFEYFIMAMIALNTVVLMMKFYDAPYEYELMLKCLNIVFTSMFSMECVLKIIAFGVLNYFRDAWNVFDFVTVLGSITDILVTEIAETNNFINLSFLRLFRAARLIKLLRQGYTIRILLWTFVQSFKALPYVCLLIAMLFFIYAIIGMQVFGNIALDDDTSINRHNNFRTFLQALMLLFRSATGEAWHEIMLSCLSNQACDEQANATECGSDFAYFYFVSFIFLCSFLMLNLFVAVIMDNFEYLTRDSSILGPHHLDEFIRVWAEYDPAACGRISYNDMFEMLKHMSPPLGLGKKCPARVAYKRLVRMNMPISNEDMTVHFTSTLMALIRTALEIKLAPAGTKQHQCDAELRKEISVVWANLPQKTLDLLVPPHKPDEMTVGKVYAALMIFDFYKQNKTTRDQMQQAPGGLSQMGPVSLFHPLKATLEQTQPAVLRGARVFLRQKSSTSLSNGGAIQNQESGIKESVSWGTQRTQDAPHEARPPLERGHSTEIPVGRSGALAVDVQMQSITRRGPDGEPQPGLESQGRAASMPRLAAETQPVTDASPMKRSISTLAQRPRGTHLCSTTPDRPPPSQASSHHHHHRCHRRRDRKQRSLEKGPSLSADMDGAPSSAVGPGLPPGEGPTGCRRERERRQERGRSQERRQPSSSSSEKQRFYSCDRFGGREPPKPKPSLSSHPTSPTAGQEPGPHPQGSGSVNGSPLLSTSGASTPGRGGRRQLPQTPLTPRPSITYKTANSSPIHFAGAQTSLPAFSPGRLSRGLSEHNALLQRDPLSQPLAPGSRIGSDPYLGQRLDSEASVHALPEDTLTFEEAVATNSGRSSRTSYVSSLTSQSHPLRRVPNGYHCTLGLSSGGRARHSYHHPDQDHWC
Sequence of Voltage-gated N-type calcium channel alpha-1B subunit/Amyloid beta A4 precursor protein-binding family A member 1 (Q02410 whole entry): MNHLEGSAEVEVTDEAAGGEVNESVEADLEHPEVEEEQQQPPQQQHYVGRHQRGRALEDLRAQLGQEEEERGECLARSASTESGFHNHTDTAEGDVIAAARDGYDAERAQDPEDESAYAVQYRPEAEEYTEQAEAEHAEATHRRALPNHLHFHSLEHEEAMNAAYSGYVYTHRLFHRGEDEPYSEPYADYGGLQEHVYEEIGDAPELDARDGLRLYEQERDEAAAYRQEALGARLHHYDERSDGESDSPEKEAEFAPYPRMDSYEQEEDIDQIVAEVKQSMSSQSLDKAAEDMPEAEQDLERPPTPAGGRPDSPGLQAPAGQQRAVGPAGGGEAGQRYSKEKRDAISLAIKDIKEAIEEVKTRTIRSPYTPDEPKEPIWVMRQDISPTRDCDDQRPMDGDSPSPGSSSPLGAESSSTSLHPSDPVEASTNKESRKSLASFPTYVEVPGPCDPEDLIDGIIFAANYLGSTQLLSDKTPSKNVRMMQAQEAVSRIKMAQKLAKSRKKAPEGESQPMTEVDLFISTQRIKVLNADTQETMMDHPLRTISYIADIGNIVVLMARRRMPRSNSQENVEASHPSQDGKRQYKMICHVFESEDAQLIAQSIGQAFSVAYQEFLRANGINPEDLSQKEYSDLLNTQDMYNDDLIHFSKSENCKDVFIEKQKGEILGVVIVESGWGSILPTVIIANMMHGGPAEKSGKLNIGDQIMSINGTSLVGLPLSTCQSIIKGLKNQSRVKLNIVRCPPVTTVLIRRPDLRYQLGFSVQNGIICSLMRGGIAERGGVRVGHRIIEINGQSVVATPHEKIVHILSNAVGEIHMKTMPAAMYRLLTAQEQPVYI
Sequence of Polyadenylate-binding protein 1 (P11940 whole entry): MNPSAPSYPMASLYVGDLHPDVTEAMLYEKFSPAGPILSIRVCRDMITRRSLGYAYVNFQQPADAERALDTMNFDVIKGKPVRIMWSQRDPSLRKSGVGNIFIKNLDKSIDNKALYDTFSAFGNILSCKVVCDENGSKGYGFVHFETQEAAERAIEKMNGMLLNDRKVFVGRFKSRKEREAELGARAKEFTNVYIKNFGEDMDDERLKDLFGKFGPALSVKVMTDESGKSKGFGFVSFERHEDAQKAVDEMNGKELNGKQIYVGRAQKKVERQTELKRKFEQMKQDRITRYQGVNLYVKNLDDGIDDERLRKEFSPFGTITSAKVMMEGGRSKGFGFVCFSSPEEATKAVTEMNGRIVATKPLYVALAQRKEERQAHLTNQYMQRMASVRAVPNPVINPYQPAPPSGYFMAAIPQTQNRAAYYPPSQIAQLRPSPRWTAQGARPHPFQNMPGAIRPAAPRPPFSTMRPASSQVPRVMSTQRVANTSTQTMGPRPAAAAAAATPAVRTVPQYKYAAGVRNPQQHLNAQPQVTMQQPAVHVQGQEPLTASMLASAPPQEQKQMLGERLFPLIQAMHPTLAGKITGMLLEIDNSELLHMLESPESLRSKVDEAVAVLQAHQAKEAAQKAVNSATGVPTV
Sequence of Glyceraldehyde-3-phosphate dehydrogenase (P04406 whole entry): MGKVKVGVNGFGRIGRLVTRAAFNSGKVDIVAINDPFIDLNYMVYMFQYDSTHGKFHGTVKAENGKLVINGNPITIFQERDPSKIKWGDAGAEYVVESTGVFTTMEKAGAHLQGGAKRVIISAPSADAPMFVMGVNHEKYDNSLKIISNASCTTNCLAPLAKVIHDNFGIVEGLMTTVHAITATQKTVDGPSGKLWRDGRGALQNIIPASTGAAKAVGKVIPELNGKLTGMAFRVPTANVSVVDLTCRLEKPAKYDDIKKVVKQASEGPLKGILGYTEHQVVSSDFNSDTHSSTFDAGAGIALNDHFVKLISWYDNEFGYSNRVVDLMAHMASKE
Sequence of Neuropeptides B/W receptor type 1 (P48145 whole entry): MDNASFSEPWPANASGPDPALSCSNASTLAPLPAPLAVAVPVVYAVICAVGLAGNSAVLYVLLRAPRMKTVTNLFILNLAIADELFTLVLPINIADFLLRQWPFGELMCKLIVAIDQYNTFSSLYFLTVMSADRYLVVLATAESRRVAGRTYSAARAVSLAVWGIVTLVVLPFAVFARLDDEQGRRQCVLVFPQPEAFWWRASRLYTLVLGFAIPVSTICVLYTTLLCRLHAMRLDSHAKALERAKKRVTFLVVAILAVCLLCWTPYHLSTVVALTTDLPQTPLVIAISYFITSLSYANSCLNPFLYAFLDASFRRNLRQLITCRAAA
Sequence of Protein Tat (P04608 whole entry): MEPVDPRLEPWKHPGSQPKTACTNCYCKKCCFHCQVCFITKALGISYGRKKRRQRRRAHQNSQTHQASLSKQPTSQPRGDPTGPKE

For the compound `Oc1ccc(/C=N/NP(=S)(c2ccccc2)c2ccccc2)c(O)c1O`, the EC50 (usually the midpoint of the concentration-response curve) in [1] was > 150 µM (inactive); in [4] it was > 38 µM (not active). The IC50 was 65.3 µM (active) in experiment [2], 25.3 µM (inconclusive) on Protein Tat, > 100 µM (active) at Genome polyprotein and > 100 µM (inactive) in [3].

As to `NCCC[C@@H](CC(=O)N[C@@H]1CCCC[C@H]1C(=O)N[C@H](CC(=O)N[C@@H](CCC(=O)O)CC(=O)O)Cc1c[nH]c2ccccc12)NC(=O)C[C@H](CO)NC(=O)[C@@H]1CNCC[C@H]1N`, the AC50 is 39.8 µM (inconclusive) on Cytochrome P450 2D6 and 12.6 µM (inconclusive) at Cytochrome P450 2C9.

As to `O=C(O)C1Nc2cc(C(F)(F)F)ccc2S(=O)(=O)N1` (stereo not drawn), the IC50 was > 100 µM (not active) in [5], > 100 µM (not active) in experiment [6], > 100 µM (inactive) in experiment [7] and > 100 µM (inactive) in experiment [8].

As to `COc1cc2c(cc1OC)C(C)N(C(=O)c1cc3c(s1)-c1ccccc1OC3)CC2` (stereo not drawn), the EC50 on Caspase-3 and on Caspase-7 was > 85.3 µM (inactive) throughout. Also, the CC50 – broadly, the concentration that lowers cell viability or growth by half – in [9] is 27.4 µM (active).

With `COc1ccc(Nc2nnc(SCc3cc(=O)n4ccsc4n3)s2)cc1`, the IC50 in experiment [10] was 16.3 µM (active); in experiment [11], 45.5 µM (inactive); in [12], 26.2 µM (inactive); on Protein Rev, > 75.4 µM (not active); at Estrogen receptor beta, > 50 µM (not active); in the experiment on H9c2 it was 7.45 µM (active). In addition, the CC50 in experiment [9] was 36.5 µM (active).

In the case of `O=C(NCCCO)c1cc(-c2ccco2)nc2ccccc12`, the IC50 in experiment [13] was > 56.8 µM (inactive).

Consider `Nc1c(C(=O)NCc2ccc3c(c2)OCO3)nnn1Cc1ccc(Br)cc1`, for which the IC50 in [14] and in experiment [15] was > 43.8 µM (not active) each time.

Consider `COc1ccc(-c2[nH]ncc2/C=C(/C#N)C(=O)NC2CCCCCC2)cc1`, for which, on X-box-binding protein 1, the “Absolute IC50 (XBP1)” value was determined as 10 µM. Also, the EC50 in [16] was 11.3 µM (active); in experiment [17], 12.6 µM (active).
